# Test results reported in US7989657B2, “Anthranilic acid derivatives” (Hoffmann-La Roche Inc., priority 2005, dated 2011).
# pEC50: −log10 of the molar value.
# Key:
# HM74A = target: T1, HM74A (Homo sapiens, UniProt Q8TDS4); test: Secondary fluorescent calcium indicator assay (FLIPR); type: cell-based; settings: stable transfected HEK-293 cells expressing HM74A and chimeric G protein Gqi9; % stimulation of maximal nicotinic acid response (100 μM)
# T1 construct: expressed in transfected cells; host or cells: HEK-293, stably transfected with pcDNA3.1 vectors
# T1 sequence (Q8TDS4 whole entry): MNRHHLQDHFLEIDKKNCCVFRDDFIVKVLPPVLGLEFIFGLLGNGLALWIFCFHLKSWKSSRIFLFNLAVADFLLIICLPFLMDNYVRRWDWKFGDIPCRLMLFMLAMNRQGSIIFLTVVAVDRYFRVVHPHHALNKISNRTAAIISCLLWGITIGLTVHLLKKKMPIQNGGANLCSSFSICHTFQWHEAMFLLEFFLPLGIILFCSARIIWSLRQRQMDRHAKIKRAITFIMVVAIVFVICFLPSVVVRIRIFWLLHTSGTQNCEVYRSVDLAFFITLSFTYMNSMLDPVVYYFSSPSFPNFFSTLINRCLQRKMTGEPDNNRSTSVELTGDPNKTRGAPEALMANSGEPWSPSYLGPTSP
# Experimental: Secondary Fluorescent Calcium Indicator Assay (FLIPR)
# HEK-293 cells were grown in tissue culture medium (DMEM/Nut mix F12 Medium with Glutamax I (Invitrogen), containing 10% FBS) at 37° C. in a 5% CO2 atmosphere. These cells were cultured in 6-well dishes at 3×10^5 cells/well and double transfected with DNA vectors (pcDNA3.1, Invitrogen) expressing either HM74A or HM74 and the chimeric G protein Gqi9. Two days after transfection the wells were combined and plated in 150 cm^2 flasks, in the presence of 50 μg/ml Hygromycin (Invitrogen) and 500 μg/ml Geneticin (Gibco). Fourteen days after plating, colonies were picked, expanded and analyzed for expression using a functional assay (FLIPR). Stable transfected HEK-293 cells expressing either HM74A or HM74 and the chimeric G protein Gqi9 were plated at 50,000 cells/well in black 96-well plates with clear bottom (Costar) and cultured to confluency overnight in growth media (DMEM/Nut mix F12 Medium with Glutamax I (Invitrogen), containing 10% FBS) at 37° C. in a humidified cell incubator containing 5% CO2. Growth media was aspirated and replaced with 100 μl of 1×FLIPR Calcium Assay Dye (Molecular Devices) in Hank's balanced salt solution (HBSS) containing 10 mM HEPES, and […] probenecid (Sigma), for 1 hour at 37° C. Cell plates were transferred to a FLIPR unit (Molecular Devices), and 50 μl of 3× compound dilution were added. Fluorescence emissions were measured and the effects of compounds were expressed as % stimulation of maximal nicotinic acid response (100 μM). Sigmoidal curves were fitted using the XLfit3 program (ID Business Solutions Ltd. UK) and EC50 values determined.
pEC50 (HM74A),melting point [°C],Molecule
6.28,,"O=C(Nc1ccccc1C(=O)O)c1ccc(Oc2cccc(Cl)c2)cc1 [Example 17, 2-[4-(3-Chloro-phenoxy)-benzoylamino]-benzoic acid]"
,123,"Cc1cc(C(=O)Nc2ccccc2C(=O)O)ccc1Oc1ccccc1 [Example 30, 2-(3-Methyl-4-phenoxy-benzoylamino)-benzoic acid]"
7.00,,"O=C(Nc1ccccc1C(=O)O)c1ccc(Oc2cc(F)ccc2F)cc1 [Example 29, 2-[4-(2,5-Difluoro-phenoxy)-benzoylamino]-benzoic acid]"

Molecule,pEC50 (HM74A),melting point [°C]
2-[4-(4-Fluoro-phenoxy)-benzoylamino]-benzoic acid [Example 2],5.96,
